Assay results reported in US10259848B2, “Compositions and methods comprising hydrocarbon-stapled polypeptides” (Dana-Farber Cancer Institute, Inc., priority 2008, dated 2019).
Where two headings read alike, the source gives them in different places. Positions of bridges follow the written chain, without caps; N, C: chain ends. Non-standard residues stand in square brackets, D forms with d. Residues, ends and D or L forms follow the SMILES beside them. No end group written: not given here. S5 = C=CCCC[C@](C)(N)C(=O)O; Nle = CCCC[C@H](N)C(=O)O

Experiments:
syncytia formation = experiment: HIV syncytial formation assay; type: cell-based, HIV-1
Procedure: Functional assays can also be used to evaluate the modified polypeptides activity. In culture, multinucleated giant cells or “syncytia” form as a result of direct cell-cell fusion between HIV-1-infected and uninfected CD4-positive cells. In the syncytia formation assay, an indicator cell line expressing the CD4 receptor, and a fusogenic cell line that lacks the CD4 receptor but contains HIV-1 proteins on the surface, fuse to generate 70-100 multinucleated giant cells in culture within 48 h. Syncytia are then counted using an inverted microscope. The ability of stabilized alpha helix of gp41 (SAH-gp41) compounds to inhibit syncytia formation in a dose-responsive fashion is used as a functional measure of fusion inhibition, for which IC50s can be determined and compared with peptides T20 and T649 (Brenner, T. J., et al. The Lancet, 1991. 337(8748): p. 1001-1005; Madani, N., et al., Journal of Virology, 2007. 81(2): p. 532-538).
The compounds of the invention were assayed for inhibition of syncytial formation using methods well known to those skilled in the art. Equal amounts of either T20/gp41(638-673) or SAH-gp41(626-645)A were added to the media.

[1] = Circular dichroism, calculated α-helical content; type: physicochemical; details: for α-helical content: comparative CD spectra, 20-mer residues 626-645
Procedure: The α-helicity of stapled modified polypeptides can be compared to their unmodified counterparts by circular dichroism. CD spectra can be obtained on a Jasco J-710 or Aviv spectropolarimeter at 20° C. using the following standard measurement parameters: wavelength, 190-260 nm; step resolution, 0.5 nm; speed, […]; accumulations, 10; response, 1 sec; bandwidth, 1 nm; path length, 0.1 cm. The α-helical content of each peptide is calculated by dividing the mean residue ellipticity [Θ]222obs by the reported [Θ]222obs for a model helical peptide (Forood, B., E. J. Feliciano, and K. P. Nambiar, PNAS, 1993. 90(3): p. 838-842; J. Martin Scholtz, Biopolymers, 1991. 31(13): p. 1463-1470; Lawless, M. K., et al., Biochemistry, 1996. 35(42): p. 13697-13708) or using, for example, the Aviv machine using CDNN software developed by Brohm in order to deduce five different secondary structure fractions (helix, parallel and antiparallel beta-sheet, beta-turn and random coil). Protein Engineering, 1992. 5(3); p. 191-195
To optimize the activity of tSAH-gp41 peptides, an alternative strategy based upon inserting one or more hydrocarbon staples into the full-length gp41-HR-2 constructs was pursued (FIG. 11, 12).

HIV-1 HXBc2 = experiment: Luciferase-based HIV infectivity assay, HXBc2; type: cell-based; details: compared to T20
Procedure: Recombinant HIV-1 bearing the envelope glycoproteins from three distinct HIV-1 strains, HXBc2, ADA, and HXBc2P 3.2, and a negative control virus bearing the amphotropic murine leukemia virus (A-MLV) envelope glycoproteins, were evaluated.

FIGURE 16C = experiment: FIGURE 16C
Excerpt: Table printed on a drawing sheet, FIGURE 16C
First reader's note: The sheet prints two blocks (626-662 and 638-673 series) under one head; per the description the half-lives are in the presence of chymotrypsin at pH 7.

FIGURE 16F = experiment: FIGURE 16F
Excerpt: Table printed on a drawing sheet, FIGURE 16F

pepsin = experiment: Protease exposure under acidic conditions: pepsin, pH 2; details: pepsin solution (protease exposure under acidic conditions)

gp41(626-645): unstapled 20-mer truncation of T649v consisting of residues 626-645 ([Nle]TW[Nle]EWDREINNYTSLIHSL) [reference compound]
inhibition of syncytia formation (words) (syncytia formation): only modest anti-syncytial activity
α-helical content [1]: 20%

CCCC[C@H](NC(C)=O)C(=O)N[C@H](C(=O)N[C@@H](Cc1c[nH]c2ccccc12)C(=O)N[C@@]1(C)CCCC=CCCC[C@@](C)(C(=O)N[C@@H](CCC(=O)O)C(=O)N[C@H](C(=O)N[C@@H](CC(N)=O)C(=O)N[C@@H](CC(N)=O)C(=O)N[C@@H](Cc2ccc(O)cc2)C(=O)N[C@H](C(=O)N[C@@H](CO)C(=O)N[C@@H](CC(C)C)C(=O)N[C@H](C(=O)N[C@@H](Cc2c[nH]cn2)C(=O)N[C@@H](CO)C(=O)N[C@@H](CC(C)C)C(N)=O)[C@@H](C)CC)[C@@H](C)O)[C@@H](C)CC)NC(=O)[C@H](CC(=O)O)NC(=O)[C@H](Cc2c[nH]c3ccccc23)NC(=O)[C@H](CCC(=O)O)NC1=O)[C@@H](C)O [SAH-gp41(626-645)(A)] (Ac-[Nle]TW[S5]EWD[S5]EINNYTSLIHSL-NH2; staple 4-8; N-terminus and C-terminus assumed)
anti-HXBc2 activity (HIV-1 HXBc2): significant anti-HXBc2 activity
inhibition of syncytia formation (words) (syncytia formation): markedly enhanced inhibitory activity
inhibition of syncytia formation (words) (syncytia formation; listed as SAH-gp41(626-645)A): inhibited syncytial formation more so than unmodified control polypeptides
α-helical content [1]: 48%

SAH-gp41(626-662)(A,F): doubly stapled gp41(626-662) HIV-1 fusion inhibitor peptide (LTWAEWDAEINNYTSLIHSLIEESQNQAEKNAQELLE; not fully specified (bridges); also: doubly stapled, places not given here)
half-life (FIGURE 16C): 5.02 h
half-life (FIGURE 16F): 34 h

enfuvirtide
calculated α-helical content ([1]; CD spectra at physiologic pH): ~25%
half-life at 25 μM (pepsin): 4 min
